These results are taken from patent publication US20140141459A1, “PENTRAXIN 3 ASSOCIATION WITH ASTHMA” (THE REGENTS OF THE UNIVERSITY OF MICHIGAN, priority 2011, published 2014).

The subject of assay [1] is A. fumigatus-induced asthma model. Description: Bronchial hyper-responsiveness (Buxco plethysmograph, methacholine) in A. fumigatus-induced asthma model. It counts as in vivo, mice. To be noted: vs PBS. The method, then: (§1) C57BL/6 mice were sensitized via intraperitoneal (i.p.) and subcutaneous (s.c.) route with a commercially available preparation of soluble A. fumigatus antigens dissolved in 0.2 ml of IFA. After three intranasal instillations of Aspergillus antigen, each spaced one-week apart, each mouse received 1×10^7 swollen conidia suspended in 30 μl of PBS tween 80 (0.1%; vol/vol) via intratracheal (i.t.) administration. All mice were euthanized with an overdose of Nembutal and lung homogenates were collected immediately following euthanization. Mouse PTX3 ELISA was completed on lung homogenate supernatant.
(§2) A. fumigatus-Induced Asthma Model was Established as Described in Example 1.
(§3) Mice were treated every other day from day 0 to 15 or from day 15 to 30 with PBS or human PTX3 (R&D System, Minneapolis, Minn., USA; 10 μg/injection). At days 15 and 30 after conidia challenge, bronchial hyper-responsiveness was assessed in a Buxco™ plethysmograph (Buxco, Troy, N.Y.) after intravenous methacholine injection (420 μg/Kg). Other parameters were determined after the assessment of airway hyper-responsiveness.

For assay [2] the test system is unchanged. The assay is described as follows: Cytokine levels in whole lung homogenate in A. fumigatus-induced asthma model. It counts as in vivo, mice. The note with it: day 30 after conidia challenge. The method, then: as §1, §2, §3
To investigate whether the treatment with exogenous PTX3 modified the cytokine profile in asthma, the levels of different cytokines in whole lungs homogenate from PBS and PTX3-treated mice at day 30 after conidia challenge were measured.

“PTX3: human PTX3 (pentraxin 3) polypeptide from R&D System, administered to mice at 10 μg/injection”: the “airway resistance at day 15 after conidia” value in assay [1] (treated every other day from day 0 to 15, 10 μg/injection) was “significantly increased”. Further, the “airway resistance at day 30 after conidia” value in assay [1] (treated every other day from day 15 to 30, 10 μg/injection) is listed as “significantly decreased”. Besides, in assay [2] (vs PBS treatment), the “increase in IL-4” value is on record as 1.8 fold, the “increase in IL-10” value is recorded as 1.8 fold, the “increase in IL-17” value is 3.7 fold and the “reduction in IFN-γ” value is reported as 1.8 fold. Further, in assay [2] (vs control group), the IL-18 levels result is on record as “significantly increased”, the “increase in CCL22 (MDC) levels” value was 1.7 fold, the “increase in IL-1α levels” value is 1.7 fold and the “increase in IL-1β levels” value is 1.7 fold.
